Columns and labels:
B16 F10 melanoma cells = assay: inhibition of pulmonary metastases in C57 mice after pretreatment of B16 F10 melanoma cells with test compound in culture; assay type: in vivo, C57 male mice; conditions: Mus musculus, B16-F10, 360 h, pulmonary foci counted fifteen days after i.v. inoculation, read-out: per cent inhibition of metastases; for inhibition in vivo at 1 µg/mL: cells pretreated 48 hours with 1 μg/ml; for inhibition in vivo at 10 µg/mL: cells pretreated 48 hours with 10 μg/ml
Experimental: The lungs provide a convenient organ for the study of metastasis in the animal body.
A single suspension of B16 F10 melanoma cells was prepared from a 14 day old maintenance tumor excised from a C57 male mouse. The tumor was minced and trypsinized followed by dissociation of the cells in minimal essential medium (MEM) with fetal calf serum (FCS) by repeated pipetting. The preparation was passed through a sterile gauze pad, centrifuged, and the cell pellet washed in minimal essential medium without fetal calf serum. A trypan blue wet mount was made to determine the percent of viable cells.
The cells were then plated in 100 mm petri dishes at 0.5×10^6 viable cells/10 ml minimal essential medium with fetal calf serum and incubated at 37° C. for 24 to 48 hours. After incubation, the medium was aspirated and 10 ml of the test compounds at the concentrations of 1 μg or 10 μg/ml MEM with FCS was added. After 24 hours incubation, the medium was aspirated and 10 ml of fresh test compound-medium preparation was added.
Test compounds were dissolved in water or dimethyl sulfoxide and then diluted to the testing concentrations with medium. Control plates receive only medium and/or medium containing dimethyl sulfoxide.
After a total of 48 hours incubation, the testing medium was aspirated, the cells trypsinized and suspended in MEM with FCS. The cells were washed in MEM without FCS and resuspended at the concentration of 10×10^5 cells/ml of MEM without FCS.
C57 male mice weighing 20-25 grams (Charles River) were inoculated intravenously via the tail vein with 2×10^5 cells per 0.2 ml MEM without FCS/mouse. Fifteen days after inoculation, the animals were sacrificed by carbon dioxide inhalation and the lungs were removed and placed in formalin solution. The number of pulmonary foci per animal lung was counted (after separating the lobes) under a lighted dissecting lens.
Data can be expressed as the mean number of foci±S.E. per control and treatment groups. Treatment group data is also expressed as a percent of control and percent of inhibition (100% minus % of control). When the procedure described above was carried out on the castanospermine esters listed below, the per cent inhibition of metastases observed [at the dose, in micrograms per milliliter (μg/ml), given in parentheses] was as follows: […]

[1] = tested on: B16 melanoma F10 line cells; assay: inhibition of metastatic foci in the lungs of C57/BL mice injected i.v. with B16 melanoma F10 line cells, test compound given i.p.; assay type: in vivo; conditions: 100 mg/kg, i.p. daily from day 1-15; metastatic foci in the lungs vs. controls
Experimental: In another experiment, 1×10^5 viable B16 melanoma F10 line cells were injected i.v. through the tail vein of C57/BL mice. Test compound was then administered at 100 mg/kg, i.p. daily from day 1-15. At the end of 15 days, the animals were sacrificed and the number of metastatic foci in the lungs were quantitated and compared to controls run simultaneously.

experimental metastasis = conditions: mice; Cancer Research, 46, 5215 (1986); cited from earlier work

Row | Structure (SMILES) | inhibition in vivo at 1 µg/mL (B16 F10 melanoma cells) [%] | other results
1 | O=C(O[C@H]1CN2CC[C@H](O)[C@@H]2[C@@H](O)[C@@H]1O)c1ccco1 [[1S-(1α,6β,7α,8β,8aβ)]-Octahydro-1,6,7,8-indolizinetetrol 6-(2-furancarboxylate)] | 51 | % INHIBITION of metastasis [1]: 40%
2 | Cc1ccccc1C(=O)O[C@H]1CN2CC[C@H](O)[C@@H]2[C@@H](O)[C@@H]1O [[1S-(1α,6β,7α,8β,8aβ)]-Octahydro-1,6,7,8-indolizinetetrol 6-(2-methylbenzoate)] | – | inhibition in vivo at 10 µg/mL (B16 F10 melanoma cells): 71%
3 | Cc1cccc(C(=O)O[C@H]2CN3CC[C@H](O)[C@@H]3[C@@H](O)[C@@H]2O)c1 [[1S-(1α,6β,7α,8β,8aβ)]-Octahydro-1,6,7,8-indolizinetetrol 6-(3-methylbenzoate)] | 78 | –
4 | COc1ccc(C(=O)O[C@H]2CN3CC[C@H](O)[C@@H]3[C@@H](O)[C@@H]2O)cc1 [[1S-(1α,6β,7α,8β,8aβ)]-octahydro-1,6,7,8-indolizinetetrol 6-(4-methoxybenzoate)] | 19 | –
5 | Cc1ccc(C(=O)O[C@H]2CN3CC[C@H](O)[C@@H]3[C@@H](O)[C@@H]2O)cc1 [[1S-(1α,6β,7α,8β,8aβ)]-octahydro-1,6,7,8-indolizinetetrol 6-(4-methylbenzoate)] | – | inhibition in vivo at 10 µg/mL (B16 F10 melanoma cells): 75%; % INHIBITION of metastasis [1]: 71%
6 | CC(=O)O[C@H]1CN2CC[C@H](O)[C@@H]2[C@@H](O)[C@@H]1O [[1S-(1α,6β,7α,8β,8aβ)]-octahydro-1,6,7,8-indolizinetetrol 6-acetate] | > 50 | –
7 | O=C(O[C@H]1CN2CC[C@H](O)[C@@H]2[C@@H](O)[C@@H]1O)c1ccccc1 [[1S-(1α,6β,7α,8β,8aβ)]-octahydro-1,6,7,8-indolizinetetrol 6-benzoate] | 35 | % INHIBITION of metastasis [1]: 66%
8 | CCCC(=O)O[C@H]1CN2CC[C@H](O)[C@@H]2[C@@H](O)[C@@H]1O [[1S-(1α,6β,7α,8β,8aβ)]-octahydro-1,6,7,8-indolizinetetrol 6-butanoate] | – | inhibition in vivo at 10 µg/mL (B16 F10 melanoma cells): 13%
9 | Cc1ccc(C(=O)O[C@H]2[C@H](O)[C@H]3[C@@H](O)CCN3C[C@@H]2O)cc1 [[1S-(1α,6β,7α,8β,8aβ)]-octahydro-1,6,7,8-indolizinetetrol 7-(4-methylbenzoate)] | 65 | –
10 | O=C(O[C@H]1[C@H](O)[C@H]2[C@@H](O)CCN2C[C@@H]1O)c1ccccc1 [[1S-(1α,6β,7α,8β,8aβ)]-octahydro-1,6,7,8-indolizinetetrol 7-benzoate] | 23 | –
11 | CCC(=O)O[C@H]1[C@H](O)[C@H]2[C@@H](O)CCN2C[C@@H]1O [[1S-(1α,6β,7α,8β,8aβ)]-octahydro-1,6,7,8-indolizinetetrol 7-propionate] | 36 | –
12 | O[C@H]1[C@H](O)[C@@H](O)CN2CC[C@H](O)[C@H]12 [castanospermine, (1S,6S,7R,8R,8aR)-1,6,7,8-tetrahydroxyindolizidine] | – | inhibition of experimental metastasis (experimental metastasis): inhibition of experimental metastasis
